{"source": "patent US9060993B2", "about": "“Compositions and methods for treating cancer” (The Trustees of the University of Pennsylvania, priority 2003, dated 2015)", "key": {"ATP citrate lyase": {"biological_target": "T1, ATP citrate lyase (Mus musculus, UniProt Q91V92)", "T1 construct": "is added to mitogen stimulated cell extracts with an IC50 of approximately 3 μM; endogenous in cells; host or cells: IL-3-dependent cell line (FL5.12), mitogen-stimulated; cytosolic extract", "T1 sequence (Q91V92 1-1091)": "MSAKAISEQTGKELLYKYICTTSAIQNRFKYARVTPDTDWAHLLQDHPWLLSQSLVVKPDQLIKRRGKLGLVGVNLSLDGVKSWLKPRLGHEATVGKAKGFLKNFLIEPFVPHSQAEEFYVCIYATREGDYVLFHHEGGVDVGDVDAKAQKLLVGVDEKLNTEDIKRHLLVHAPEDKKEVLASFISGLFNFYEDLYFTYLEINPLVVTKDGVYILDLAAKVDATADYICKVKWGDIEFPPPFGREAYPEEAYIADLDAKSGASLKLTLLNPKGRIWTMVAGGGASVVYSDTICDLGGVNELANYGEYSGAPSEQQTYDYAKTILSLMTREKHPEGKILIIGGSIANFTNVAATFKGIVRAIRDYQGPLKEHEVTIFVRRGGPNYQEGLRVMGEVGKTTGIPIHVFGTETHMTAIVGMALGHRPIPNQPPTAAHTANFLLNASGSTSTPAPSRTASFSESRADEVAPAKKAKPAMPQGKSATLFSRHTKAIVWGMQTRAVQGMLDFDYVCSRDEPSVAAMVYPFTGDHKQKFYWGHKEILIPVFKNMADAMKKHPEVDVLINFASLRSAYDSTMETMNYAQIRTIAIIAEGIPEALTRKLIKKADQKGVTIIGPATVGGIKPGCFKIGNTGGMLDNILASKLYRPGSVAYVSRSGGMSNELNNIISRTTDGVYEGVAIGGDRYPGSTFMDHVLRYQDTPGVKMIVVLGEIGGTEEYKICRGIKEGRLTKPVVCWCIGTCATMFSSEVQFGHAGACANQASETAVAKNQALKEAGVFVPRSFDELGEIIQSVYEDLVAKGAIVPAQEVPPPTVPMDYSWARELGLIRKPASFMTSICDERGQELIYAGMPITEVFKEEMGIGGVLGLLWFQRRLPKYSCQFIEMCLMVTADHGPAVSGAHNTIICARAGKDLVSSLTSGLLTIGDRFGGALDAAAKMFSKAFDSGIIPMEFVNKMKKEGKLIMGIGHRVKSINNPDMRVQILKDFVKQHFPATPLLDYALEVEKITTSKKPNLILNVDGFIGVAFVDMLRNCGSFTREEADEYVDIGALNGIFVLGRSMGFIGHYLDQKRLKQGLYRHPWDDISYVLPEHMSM", "test": "ATP citrate lyase activity in cellular extracts (malate dehydrogenase coupled, NADH consumption at 340 nm)", "format": "biochemical", "conditions": "mitogen stimulated cell extracts", "procedure": "To investigate the potential induction of ATP citrate lyase in response to mitogen stimulation of cell proliferation, an assay was developed to quantitate ATP citrate lyase (ACL) activity in cellular extracts. As a positive control, stable transfectants of a cell line dependent on IL-3 for the induction of cell proliferation was also produced. The cytosolic extracts from the wild type cells and ATP citrate lyase transfected cells were analyzed by determining the level of ATP citrate lyase activity per 10^6 cells as determined by the malate dehydrogenase catalyzed reduction of oxaloacetate by NADH. NADH consumption was measured by monitoring the reaction at 340 nm. Assays were run by providing citrate at 100 μM in the presence of 5 mM ATP and 300 μM of CoA."}, "FL5.12 cells": {"tested_on": "FL5.12 cells", "test": "Cell proliferation and survival of IL-3 stimulated FL5.12 cells in culture", "format": "cell-based", "protocol": "As a result, we have investigated the ability of hydroxycitrate to inhibit the proliferative response of FL5.12 cells stimulated by interleukin-3. […] The IC50 of this effect approximates the efficacy of hydroxycitrate in inhibiting ACL-dependent fatty acid synthesis as reported by others (Pearce et al. 1998).\n(§1) When 3-carbox-11-(2,4-dichlorophenyl)-3,5dihydroxyundecanoic acid (see FIG. 4 for structures) is added to mitogen stimulated cell extracts with an IC50 of approximately 3 μM and when cells were treated with a γ-lactone derivative that is cell permeant, the cell proliferation was inhibited at approximately a 10 μM concentration and both cell proliferation and cell survival were inhibited at 30 μM concentrations (FIG. 6)."}, "[1]": {"tested_on": "hematopoietic IL3-dependent cell lines", "test": "In vitro apoptosis assay (Annexin V / propidium iodide flow cytometry)", "format": "cell-based", "conditions": "30 μM; FIG. 9", "protocol": "Remove 500 μl of treated or untreated cells (at concentrations of 0.5-1×10^6 cells/ml) to a FACS tube and add 50 μl of 10× Annexin V binding buffer (BD Biosciences Pharmingen, San Diego, Calif.) to each tube. Stain cells with Annexin V-FITC (BD Biosciences Phanningen, San Diego, Calif. ) using 4 μl Annexin V-FITC and propidium iodide (Molecular Probes, Eugene, Oreg.) at a final concentration of 3 μg/ml of cells. The cells are preferably hematopoietic IL3-dependent cell lines such as for example IL3-dependent FL5.12 pro-B cells transfected with different transgenes (Bcl-xL, myrAkt) or vector control plasmids and IL3-dependent cells isolated from the bone marrow of Bax−/−Bak−/− knockout mice. Incubate at 37° for 30 minutes. Perform flow cytometry. Early apoptotic cells are Annexin V positive, propidium iodide negative while late apoptotic cells are both Annexin V and propidium iodide positive.\nas §1"}, "[2]": {"tested_on": "Bax/Bak-deficient, IL-3-dependent cell lines", "test": "Mitogen-induced cell growth of Bax/Bak-deficient, IL-3-dependent cell lines", "format": "cell-based, mice", "conditions": "30 μM, resting cells treated with IL-3; FIG. 14"}, "[3]": {"tested_on": "mitogen-stimulated cells and proliferating transformed cell cultures", "test": "Cell cycle analysis of mitogen-stimulated cells and proliferating transformed cell cultures", "format": "cell-based", "conditions": "30 μM; FIG. 8", "protocol": "as §1"}, "[4]": {"tested_on": "cells transfected with the oncogene Bcl-xL", "test": "Proliferation and cell death of Bcl-xL-transfected cells in presence or absence of the mitogen IL-3", "format": "cell-based", "conditions": "30 μM, FIG. 11"}}}
{"smiles": "O=C(O)CC(O)(CC(O)CCCCCCc1ccc(Cl)cc1Cl)C(=O)O", "note": "(centres unmarked) [3-carbox-11-(2,4-dichlorophenyl)-3,5dihydroxyundecanoic acid]", "values": [{"measurement": "IC50", "setting": "ATP citrate lyase", "result": "~3", "unit": "µM"}]}
{"smiles": "O=C(O)CC(O)(C(=O)O)C(O)C(=O)O", "note": "(centres unmarked) [hydroxycitrate]", "values": [{"measurement": "overall cell number and viability of cells in culture", "setting": "FL5.12 cells; added to IL-3-containing cultures of FL5.12, FIG. 3", "result": "progressive decline in the overall cell number and viability"}]}
{"smiles": "O=C(O)C[C@@]1(O)C[C@@H](CCCCCCc2ccc(Cl)cc2Cl)OC1=O", "note": "[γ-lactone derivative]", "values": [{"measurement": "annexin-V positivity (induction of apoptosis)", "setting": "[1]", "result": "rapid induction of the annexin-V positivity"}, {"measurement": "mitogen-induced cell growth", "setting": "[2]", "result": "nearly completely inhibited"}, {"measurement": "cell cycle effect", "setting": "[3]", "result": "G1 arrest"}, {"measurement": "concentration at which both cell proliferation and cell survival were inhibited", "setting": "FL5.12 cells; FIG. 6", "result": 30, "unit": "µM"}, {"measurement": "concentration at which cell proliferation was inhibited", "setting": "FL5.12 cells; cells treated with cell permeant γ-lactone, FIG. 6", "result": "~10", "unit": "µM"}, {"measurement": "inhibition of cell proliferation in each independent cell clone", "setting": "FL5.12 cells; immortalized hematopoietic cells, independent clones, doses between 10 and 30 μM, FIG. 7", "result": "approximately 50%"}, {"measurement": "cell death", "setting": "[4]; in presence of IL-3", "result": "induction of apoptotic cell death"}, {"measurement": "mitogen-induced cell proliferation", "setting": "[4]; in presence of IL-3", "result": "near complete inhibition"}, {"measurement": "toxicity in nongrowing cells", "setting": "[4]; nongrowing cells (IL-3 withdrawal)", "result": "relatively nontoxic"}]}
